In PubChem BioAssay AID1189 (EPA DSSTox, 2008):
The source made the active and inactive calls.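 How the source made its calls: active means a tumor-causing dose value with its tumor site reported for any sex and species group of a rodent or other animal cancer study; inconclusive means only studies judged inadequate by the national testing program; inactive means tested in at least one study, none positive.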

assay: DSSTox (CPDBAS) Carcinogenic Potency Database Summary SingleCellCall Results; settings: animal chronic carcinogenicity bioassays, CPDB summary call
In short: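 Literature-derived summary: each substance receives an overall carcinogenic/non-carcinogenic category drawn from long-term bioassays in rats, mice, hamsters, dogs or primates, using the most positive sex-species experiment and minimal evidence criteria.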

| Structure (SMILES) | outcome |
| --- | --- |
| ClC1=C(Cl)C2(Cl)C3C(Cl)C=CC3C1(Cl)C2(Cl)Cl (stereo not given) | active |
| Nc1ccc2cc3ccc(N)cc3nc2c1 | inactive |
| CN(C)CCOC(c1ccccc1)c1ccccc1 | inactive |
| FCC(F)(F)F | active |
| OCl | inactive |
| NNc1nc(-c2ccc(N)cc2)cs1 | active |
| C[C@]12C/C(=C/O)C(=O)C[C@@H]1CC[C@@H]1[C@@H]2CC[C@@]2(C)[C@H]1CC[C@]2(C)O | active |
| Nc1ccccc1-c1ccccc1 | active; inactive |
| C=CCN(CC=C)N=O | active |
| CC1CN(N=O)CC(C)N1C(=O)c1ccccc1 (stereo not given) | active |
| CC1=C(/C=C/C(C)=C/C=C/C(C)=C/C=C/C=C(C)/C=C/C=C(C)/C=C/C2=C(C)CCCC2(C)C)C(C)(C)CCC1 | inactive |
| CN(N=O)c1ncnc2c1ncn2[C@@H]1O[C@H](CO)[C@@H](O)[C@H]1O | active |
| CCCl | active; inactive |
| c1ccc2c(c1)Oc1ccccc1O2 | inactive; active |
| O.O.O.O.O.O.O.O.O=S(=O)([O-])[O-].O=S(=O)([O-])[O-].O=S(=O)([O-])[O-].[Cd+2].[Cd+2].[Cd+2] | inactive |
| Nc1ccc(Cc2ccc(N)cc2)cc1 | active; inactive |
| O=C(c1ccccc1)C(O)c1ccccc1 (stereo not given) | inactive; active |
| Cc1cccc2cccnc12 | inactive |
| Cc1ccc(S(=O)(=O)Oc2ccc(N=Nc3ccc(-c4ccc(N=Nc5c(O)ccc6cc(S(=O)(=O)O)cc(S(=O)(=O)O)c56)c(C)c4)cc3C)cc2)cc1 | active |
| C=C(C)CCl | active; inactive |
| CN(N=O)C(=O)Nc1nc2ccccc2s1 | active |
| O=C/C=C/c1ccccc1 | inactive |
| C[C@@H]1C[C@H]2[C@@H]3CCC4=CC(=O)C=C[C@]4(C)[C@@]3(F)[C@@H](O)C[C@]2(C)[C@@]1(O)C(=O)CO | inactive |
| CCOC(=O)[C@H](CCc1ccccc1)N[C@@H](C)C(=O)N1Cc2ccccc2C[C@H]1C(=O)O | inactive; active |
| CCOC(=O)N(C)N=O | active |
| CC(C)n1c(/C=C/[C@@H](O)C[C@@H](O)CC(=O)O)c(-c2ccc(F)cc2)c2ccccc21 | active |

| Structure (SMILES) | outcome |
| --- | --- |
| c1ccc(OCC2CO2)cc1 (stereo not given) | active |
| Clc1ccc(C(c2ccc(Cl)cc2)C(Cl)(Cl)Cl)cc1 | active |
| O=NN1CCOCC1 | active; inactive |
| OCC1CO1 (stereo not given) | active |
| CC1(C)C(=O)NC(=O)NC1=O | inactive; active |
| CC1CO1 (stereo not given) | active |
| O=NN1CCC(=O)NC1=O | active |
| O=c1cc(CO)occ1O | active |
| ClCOCCCCOCCl | inactive |
| Cc1c(N)cccc1N | inactive |
| CN(C)C(=O)Nc1ccc(Cl)cc1 | active |
| O.[Cd+2].[Cl-].[Cl-] | inactive |
| O=C(O)c1nn(Cc2ccc(Cl)cc2Cl)c2ccccc12 | inactive |
| ClCC(Cl)(Cl)Cl | active; inactive |
| O=C1Nc2ccc(Cl)cc2C(c2ccccc2)=NC1O (stereo not given) | active |
| CC(=O)Nc1ccc(OCC(O)CNC(C)C)cc1 (stereo not given) | inactive |
| CN(CCc1ccccc1)N=O | active |
| CC[N+](=O)[O-] | inactive |
| O=C(O)c1cccnc1 | inactive |
| O=C1c2ccccc2C(=O)c2c(O)cccc21 | active |
| CCCCCCCCCCCCN(C)N=O | active |
| CCOc1nc2cccc(C(=O)OC(C)OC(=O)OC3CCCCC3)c2n1Cc1ccc(-c2ccccc2-c2nn[nH]n2)cc1 (stereo not given) | inactive |
| O=C1OC(C(O)CO)C(O)=C1O (stereo not given) | inactive |
| CC(C)(C)O | active; inactive |
| O=NN(CCCC(F)(F)F)CCCC(F)(F)F | active |
| COP(=O)(OC)OC=C(Cl)Cl | active |

| Structure (SMILES) | outcome |
| --- | --- |
| C[C@H]1C(=O)O[C@@H]2CCN3CC=C(COC(=O)[C@](C)(O)[C@]1(C)O)[C@H]23 | active |
| COC(=O)C1=CCCN(N=O)C1 | inactive |
| CC(Oc1cc(Cl)c(Cl)cc1Cl)C(=O)O (stereo not given) | inactive |
| CO[C@H]1/C=C/O[C@@]2(C)Oc3c(C)c(O)c4c(O)c(c(/C=N/N5CCN(C)CC5)c(O)c4c3C2=O)NC(=O)/C(C)=C\C=C\[C@H](C)[C@H](O)[C@@H](C)[C@@H](O)[C@@H](C)[C@H](OC(C)=O)[C@@H]1C | active; inactive |
| O=C1c2ccccc2-c2ccc3c4c(ccc1c24)-c1ccccc1C3=O | active; inactive |
| CCCCNC(N)=O | inactive |
| NC(=O)c1cccnc1 | inactive |
| C=CCc1ccc(OC)c(OC)c1 | active; inactive |
| C=Cc1ccc(C)cc1 | inactive |
| O=[N+]([O-])c1c(Cl)c(Cl)c(Cl)c(Cl)c1Cl | active |
| COc1cc(/C=C/C(=O)OCCc2ccccc2)ccc1O | inactive; active |
| C[C@H](CCC(=O)O)[C@H]1CC[C@H]2[C@@H]3CC[C@@H]4C[C@H](O)CC[C@]4(C)[C@H]3CC[C@]12C | inactive |
| CCCc1c(OCCCCc2nn[nH]n2)ccc(C(C)=O)c1O | active |
| Nc1ccc2c(n1)[nH]c1ccccc12 | active |
| Cn1cc(OCC(O)CNC(C)(C)C)c2ccccc2c1=O (stereo not given) | inactive; active |
| CCC(Br)(CC)C(=O)NC(N)=O | inactive |
| O=C(CCl)c1ccccc1 | inactive; active |
| CCSCC[C@H](N)C(=O)O | active; inactive |
| COc1ccc([N+](=O)[O-])cc1N | active |
| O=C(Nc1ccc2c(c1)Cc1ccccc1-2)C(F)(F)F | active |
| ClCc1cccnc1 | active |
| O=S(=O)([O-])[O-].[O]=[V+2] | inactive |
| CCCOC(=O)c1cc(O)c(O)c(O)c1 | inactive |
| CCC(Cl)CCC(Cl)C(Cl)CC(Cl)C(Cl)C(Cl)CCl (stereo not given) | active |
| CC(COc1ccc(C(C)(C)C)cc1)OS(=O)OCCCl (stereo not given) | active |
| CC1(C)S[C@@H]2[C@H](NC(=O)COc3ccccc3)C(=O)N2[C@H]1C(=O)O | inactive |

| Structure (SMILES) | outcome |
| --- | --- |
| Cc1cccc(C)c1NC(=O)CN1CCCC1=O | inactive |
| Clc1cc(Cl)cc(-c2cc(Cl)cc(Cl)c2)c1 | inactive |
| CN(C)CCN(Cc1ccsc1)c1ccccn1 | inactive; active |
| CC(=O)OC(OC(C)=O)c1ccc([N+](=O)[O-])o1 | inactive |
| CCCCN(CCCC)N=O | active |
| CC(=O)Nc1ccc2c(c1)Cc1ccccc1-2 | active |
| CCCCC1C(=O)N(c2ccccc2)N(c2ccccc2)C1=O | active; inactive |
| Nc1ccc(/C=C/c2ccc(N)cc2S(=O)(=O)O)c(S(=O)(=O)O)c1 | inactive; active |
| COc1ccc(C(=O)/C(Br)=C\C(=O)O)cc1 | active |
| CCCC[N+](=O)[O-] | inactive |
| Nc1ccccc1C(=O)O | inactive; active |
| NC(=O)/C(=C\c1ccc([N+](=O)[O-])o1)c1ccco1 | active |
| O=C/C=C/O | active |
| NN | active |
| [N-]=[N+]=O | inactive |
| Nc1nc(N)nc(-c2cc(Cl)ccc2Cl)n1 | inactive |
| CCCCNN | active |
| C=C(C)C(=O)OC | inactive; active |
| CCOCCc1c(-c2ccccc2)nc(N)n2ncnc12 | active; inactive |
| CC(O)CN(N=O)C(=O)NCCCl (stereo not given) | active |
| O=c1cc[nH]c(=S)[nH]1 | active; inactive |
| CCN(Cc1cccc(S(=O)(=O)O)c1)c1ccc(C(=C2C=CC(=[N+](CC)Cc3cccc(S(=O)(=O)[O-])c3)C=C2)c2ccc(S(=O)(=O)O)cc2)cc1 | active |
| CC(=O)N[C@@H](CS)C(=O)O | inactive |
| Nc1ccc(-c2ccc(N)c(Cl)c2)cc1Cl | active |
| CN(N=O)c1ccccc1 | active |
| CCC(CC)[N+](=O)[O-] | active |

| Structure (SMILES) | outcome |
| --- | --- |
| CCCCCCCCCCCCCCN(C)N=O | active |
| Nc1ccc(N)c(Cl)c1 | inactive |
| CCCCCN(CCCCC)N=O | active; inactive |
| Nc1cccc2c(N)cccc12 | active |
| O=S(=O)(O)c1cc(S(=O)(=O)O)c2c(N=Nc3ccccc3)c(O)ccc2c1 | inactive |
| COP(=O)(OC)C(O)C(Cl)(Cl)Cl (stereo not given) | inactive |
| CN(C)CCN(Cc1cccs1)c1ccccn1 | active |
| CC(C)(C)NC[C@H](O)COc1cccc2c1CCCC2=O | inactive |
| Cc1cccc(C)c1N | inactive; active |
| ClC1=C(Cl)C2(Cl)C3C(Cl)OC(Cl)C3C1(Cl)C2(Cl)Cl (stereo not given) | inactive |
| CC(=O)C1C(=O)C=C(C)OC1=O (stereo not given) | inactive; active |
| c1ccc2c(c1)ccc1cc3c(ccc4ccccc43)cc12 | active |
| CCC1C(=O)OCC1Cc1cncn1C (stereo not given) | inactive |
| ClCCOCCCl | active |
| O=P(OCC(Br)CBr)(OCC(Br)CBr)OCC(Br)CBr (stereo not given) | active |
| O=Cc1ccccc1 | active |
| CC1CN(/N=C/c2ccc([N+](=O)[O-])o2)C(=O)N1 (stereo not given) | active |
| CC1CN(N=O)CC(C)N1C (stereo not given) | active |
| Oc1ccccc1 | inactive |
| c1ccc(Nc2ccc(Nc3ccccc3)cc2)cc1 | inactive |
| O=C1CCCCC1 | inactive |
| O.O=S(=O)([O-])[O-].[Mn+2] | inactive |
| CCN(C=O)CC | inactive; active |
| NC(N)=S | active; inactive |
| O=C(O)C1[O][Sb]2[O]C(=O)C([O]2)C(C(=O)O)[O][Sb]2[O]C(=O)C1[O]2 (stereo not given) | inactive |
| C[C@@H]1O[C@@H](OC[C@H]2O[C@@H](Oc3c(-c4ccc(O)c(O)c4)oc4cc(O)cc(O)c4c3=O)[C@H](O)[C@@H](O)[C@@H]2O)[C@H](O)[C@H](O)[C@H]1O | inactive |
